Results taken from PMC6263361 (Molecules, 2011).
Read-outs that look alike come from different tables or passages of the source.

Key:
GST-E2F-4 = molecular target: T1, GST-E2F-4 (Homo sapiens, UniProt Q16254); assay: SPR interaction analysis with immobilized recombinant GST-E2F-4; format: binding; details: for affinity for E2F-4, fold weaker than that of etoposide: relative to etoposide
T1 construct: The 1239-bp cDNA fragment of E2F-4 was amplified from I.M.A.G.E cDNA clone; made in house; host or cells: E. coli BL21(DE3)pLysS
T1 sequence (Q16254 whole entry, the tested form may be a part): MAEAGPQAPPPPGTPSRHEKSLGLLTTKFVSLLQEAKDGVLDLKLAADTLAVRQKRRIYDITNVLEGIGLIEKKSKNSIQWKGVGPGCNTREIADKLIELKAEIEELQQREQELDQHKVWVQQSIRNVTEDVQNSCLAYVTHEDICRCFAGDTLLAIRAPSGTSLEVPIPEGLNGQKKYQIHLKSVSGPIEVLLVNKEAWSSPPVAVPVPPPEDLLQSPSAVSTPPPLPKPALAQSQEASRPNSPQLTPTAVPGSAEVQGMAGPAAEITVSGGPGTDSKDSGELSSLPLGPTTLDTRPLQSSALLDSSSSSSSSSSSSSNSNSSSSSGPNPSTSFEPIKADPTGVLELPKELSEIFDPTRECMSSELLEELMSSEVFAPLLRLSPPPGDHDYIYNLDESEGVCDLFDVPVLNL
Source text: (§1) The gene encoding E2F-4 protein was engineered into an E. coli expression system as a GST fusion protein (GST-E2F-4) and purified by affinity interaction using glutathione Sepharose beads. The GST-E2F-4 was immobilized on a CM5 sensor chip using the same procedure as described for the synthetic ETBP.
The 1239-bp cDNA fragment of E2F-4 was amplified from I.M.A.G.E cDNA clone (clone ID CL0B005ZB12, Invitrogen) by PCR with the primers 5’-[…]-3’ (up) and 5’-[…]-3’ (down) and subcloned into pGEM-T vector (Promega). Following purification and digestion with EcoRI and XhoI, the cDNA fragment was subcloned into the expression vector pET28a(+) (Novagen). The construct was transformed into E. coli BL21(DE3)pLysS (Novagen). Heterologous gene expression was induced by addition of 0.1 mM isopropyl β-D-1-thiogaractopyranoside (IPTG). The culture was continued at 37 °C with vigorous shaking for 1 h. The cells were then harvested and suspended in binding buffer (0.5 M NaCl, 5 mM 2-mercaptoethanol in 50 mM sodium phosphate, pH 7.5). Following sonication and centrifugation the soluble fraction was obtained and purified using the FPLC instrument and GSTrap column (1 mL, GE Healthcare) and then subjected to kinetic analysis by SPR. The purified GST-E2F-4 in resulting fraction was detected by a SDS-PAGE followed by CBB staining or Western blotting using rabbit anti-GST (primary) and anti-rabbit IgG-AP conjugate (secondary) antibodies (Sigma-Aldrich) with BCIP/NBT solution.
(§2) Analysis of binding between etopside and synthetic ETBP or recombinant GST-E2F-4 was performed with a surface plasmon resonance (SPR) biosensor (Biacore®3000, GE Healthcare). The synthetic ETBP or protein dissolved in each buffer (ETBP16: 10 mM acetate buffer, pH 4.0−10% DMSO; ETBP10, HG102: 10 mM carbonate buffer, pH 8.5; protein: 10 mM acetate buffer, pH 4.0) was injected over a CM5 sensor chip at 10 µL/min and captured on the carboxymethyl dextran matrix via an amine coupling reaction. The surface was activated by injecting a solution containing 200 mM EDC and 50 mM NHS for 14 min. The protein or peptide was injected and the surface was then blocked by injecting 1 M ethanolamine at pH 8.5 for 14 min. […] BIAevaluation 3.2 software (GE Healthcare) was used to determine the kinetic parameters.

[1] = test system: control peptide HG102 (SGVMLGDPN); assay: SPR interaction analysis between etoposide and control peptide HG102; format: binding; details: etoposide 3.2-80 µM injected
Protocol: Synthetic ETBP16 or ETBP10 was immobilized on a CM5 censor chip by an amine coupling reaction. […] By contrast, no response was observed against a control peptide HG102 ([…]).
Analysis of binding between etopside and synthetic ETBP or recombinant GST-E2F-4 was performed with a surface plasmon resonance (SPR) biosensor (Biacore®3000, GE Healthcare). The synthetic ETBP or protein dissolved in each buffer (ETBP16: 10 mM acetate buffer, pH 4.0−10% DMSO; ETBP10, HG102: 10 mM carbonate buffer, pH 8.5; protein: 10 mM acetate buffer, pH 4.0) was injected over a CM5 sensor chip at 10 µL/min and captured on the carboxymethyl dextran matrix via an amine coupling reaction. The surface was activated by injecting a solution containing 200 mM EDC and 50 mM NHS for 14 min. The protein or peptide was injected and the surface was then blocked by injecting 1 M ethanolamine at pH 8.5 for 14 min. This reaction immobilized 1279 resonance units (RU) of ETBP16, 3400 RU of ETBP10, 350 RU of HG102, 11421 RU of GST-E2F-4, 4388 RU of GST, and 7500 RU of top II (usb). […] BIAevaluation 3.2 software (GE Healthcare) was used to determine the kinetic parameters.

GST = GST (Schistosoma japonicum, UniProt P08515); assay: SPR interaction analysis with immobilized GST tag alone; format: binding; details: etoposide 2.5-100 µM injected
Sequence of GST (P08515 whole entry): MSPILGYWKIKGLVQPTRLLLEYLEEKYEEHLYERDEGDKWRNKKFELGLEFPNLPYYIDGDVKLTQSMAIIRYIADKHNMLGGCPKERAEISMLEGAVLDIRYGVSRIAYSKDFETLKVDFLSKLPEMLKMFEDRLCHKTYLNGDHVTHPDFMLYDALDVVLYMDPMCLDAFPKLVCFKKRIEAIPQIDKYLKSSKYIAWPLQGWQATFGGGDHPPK
Protocol: as §1, §2

E2F-4/DP1 = molecular target: T2, E2F-4/DP1 (Homo sapiens, UniProt Q16254); assay: Luciferase reporter gene assay, E2F-4/DP1 expressing CHO-K1 cells; format: cell-based; details: 15 h incubation, read-out: IC50 of reporter gene transcription, E2F-4/DP1
T2 construct: expressed in transfected cells; host or cells: CHO-K1
T2 sequence (Q16254 whole entry, species assumed): as the sequence (Q16254 whole entry, the tested form may be a part) above
Source text: (§3) E2F-4 functions as a transcription factor, forming a heterodimeric complex with DP via the DP binding domain (G86-I181) (Figure 9).
(§4) The vectors (pCMV-E2F-4, pCMV-DP1, pCMV-DP2) for the luciferase reporter gene assay were kindly provided by Dr. Junji Magae (Institute of Research and Innovation (IRI), Kashiwa, Chiba, Japan) The reporter gene plasmid (pGL3-GC box) was constructed by insertion of double stranded DNA with XhoI and HindIII site, which was generated by an annealing of 60 pmol of oligonucleotides 5’-[…]-3’ and 5’-[…]-3’ into pGL3 vector (Promega). Transfection was then performed using Lipofectamine 2000 (Invitrogen) in a 96-well format according to the manufacturer’s instructions (Invitrogen).

E2F-4/DP2 = molecular target: T3, E2F-4/DP2 (Homo sapiens, UniProt Q16254); assay: Luciferase reporter gene assay, E2F-4/DP2 expressing CHO-K1 cells; format: cell-based; details: 15 h incubation, read-out: IC50 of reporter gene transcription, E2F-4/DP2
T3 construct: expressed in transfected cells; host or cells: CHO-K1
T3 sequence (Q16254 whole entry, species assumed): as the sequence (Q16254 whole entry, the tested form may be a part) above
Source text: as §3, §4

CHO-K1 cells = assay: MTS assay of cell proliferation; format: cell-based; details: concentrations used in the reporter assay; data not shown
[2] = SPR, read-out: KD between GST-E2F-4 and each compound

SMILES: COc1cc(C(=O)O)cc(OC)c1O [Syringic acid]
- SPR response against GST-E2F-4 (GST-E2F-4; in the concentration range tested): no response

SMILES: COc1cc([C@@H]2c3cc4c(cc3[C@@H](O[C@@H]3O[C@@H]5CO[C@@H](c6cccs6)O[C@H]5[C@H](O)[C@H]3O)[C@H]3COC(=O)[C@H]23)OCO4)cc(OC)c1O [Teniposide, teniposide]
- affinity for E2F-4, fold weaker than that of etoposide (GST-E2F-4; SPR): nine
- Kd (GST-E2F-4; [2]): 654 µM

SMILES: COc1cc([C@@H]2c3cc4c(cc3[C@H](O)[C@H]3COC(=O)[C@H]23)OCO4)cc(OC)c1OC [Podophyllotoxin, podophyllotoxin]
- Kd (GST-E2F-4): 308 µM
- affinity for E2F-4, fold weaker than that of etoposide (GST-E2F-4; SPR): approximately four

SMILES: COc1cc([C@@H]2c3cc4c(cc3[C@@H](O[C@@H]3O[C@@H]5CO[C@@H](C)O[C@H]5[C@H](O)[C@H]3O)[C@H]3COC(=O)[C@H]23)OCO4)cc(OC)c1O [Etoposide]
- SPR response against control peptide HG102 [1]: no response
- Kd (GST-E2F-4; [2]): 75 µM
- SPR response against GST tag alone (GST): did not show any response
- IC50 (E2F-4/DP1): 1560 nM
- IC50 (E2F-4/DP2): 1160 nM
- effect in terms of cell growth in MTS assay (CHO-K1 cells): no effect
